Consider twelve compounds from the SangsterLogP compilation.

As a reminder, the logP is a log measure of how a compound divides between an organic and an aqueous phase.

The nature of this series: method code SF-AS, from PMID: 8047542.
Regarding `CCCCCCCCCCCCCCCCOC(=O)C(C)c1ccc(CC(C)C)cc1` (configuration not stated), the logP amounted to 3.71.

Compound `CCCOC(=O)C(C)c1ccc(CC(C)C)cc1` (configuration not stated) showed a lipophilicity (logP) of 2.88.

Compound `CC(C)COC(=O)C(C)c1ccc(CC(C)C)cc1` (configuration not stated) displayed a lipophilicity (logP) of 2.68.

In the case of `CCC(C)OC(=O)C(C)c1ccc(CC(C)C)cc1` (configuration not stated), the lipophilicity (logP) is 3.06.

Turning to `CCCCCCOC(=O)C(C)c1ccc(CC(C)C)cc1` (configuration not stated), the log partition coefficient (logP) was 3.55.

Regarding `CCCCCOC(=O)C(C)c1ccc(CC(C)C)cc1` (configuration not stated), the log partition coefficient (logP) stood at 3.3.

On to `CC(C)Cc1ccc(C(C)C(=O)OC(C)(C)C)cc1` (configuration not stated), for which the log partition coefficient (logP) came out at 2.37.

Consider `CC(C)Cc1ccc(C(C)C(=O)OC(C)C)cc1` (configuration not stated), for which the logP is 2.3. The logP values of the last two compounds are within 0.2 log units of each other.

`CCOC(=O)C(C)c1ccc(CC(C)C)cc1` (configuration not stated): the lipophilicity (logP) is 3.02.

The compound `CCCCOC(=O)C(C)c1ccc(CC(C)C)cc1` (configuration not stated) gave a logP of 3.13.

As to `CCCCCCCOC(=O)C(C)c1ccc(CC(C)C)cc1` (configuration not stated), the logP came out at 3.75.

For the compound `COC(=O)C(C)c1ccc(CC(C)C)cc1` (configuration not stated), the lipophilicity (logP) was found to be 2.97.
